# “And” between values parts separate entries of the source, which are not always exact repeats. Identical values can stand only once.
# Target: T1, IDO1 (Homo sapiens, UniProt P14902)
# T1 construct: Recombinant full-length IDO1 (Seegers, N., et al.) and all other assay components were diluted in IDO1 reaction buffer; made in house
# Test: Biochemical IDO1 assay (NFK GreenScreen)
# Conditions: for IC50: NFK GreenScreen, 25 nM IDO1, 100 μM L-tryptophan, read-out: IC50, inhibitory potency on IDO1; for relative activity of the separated isomers: stated in the synthesis examples, assay not named
# Protocol: Inhibition of IDO1 activity can be measured by determining the enzymatic conversion of L-tryptophan into N-formylkynurenine (NFK) in a reaction mixture containing IDO1 and test compound. The formation of NFK can be detected directly by, for instance, high-performance liquid chromatography (HPLC) methods, or by intrinsic fluorescence.
# Compounds were serially diluted in dimethylsulfoxide (DMSO) and finally in IDO1 reaction buffer, consisting of 50 mM NaH2PO4, pH7.0, supplemented with 0.05% Tween-20 (cat. No. P7949; Sigma Aldrich) and 1% glycerol. Recombinant full-length IDO1 (Seegers, N., et al.) and all other assay components were diluted in IDO1 reaction buffer. […] Subsequently, 10 μl of 0.4 mM of the substrate L-tryptophan was added, i.e., the final concentration of L-tryptophan was 100 μM. The DMSO concentration in the assay was 0.3%. […] Incubation was continued for 60 min at room temperature. Then, 10 μl of NFK Green™ (NTRC, Oss, The Netherlands) was added, the plate was sealed, and the reaction was developed for 3 hours at 37° C. To determine the production of N-formyl kynurenine (NFK), the seal was removed and fluorescence was read on an EnVision multimode reader (Perkin Elmer, Waltham, Mass., USA). IC50 were calculated using XLfit™ software (ID Business Solutions, Ltd., Surrey, U.K.).
# T1 sequence (P14902 whole entry): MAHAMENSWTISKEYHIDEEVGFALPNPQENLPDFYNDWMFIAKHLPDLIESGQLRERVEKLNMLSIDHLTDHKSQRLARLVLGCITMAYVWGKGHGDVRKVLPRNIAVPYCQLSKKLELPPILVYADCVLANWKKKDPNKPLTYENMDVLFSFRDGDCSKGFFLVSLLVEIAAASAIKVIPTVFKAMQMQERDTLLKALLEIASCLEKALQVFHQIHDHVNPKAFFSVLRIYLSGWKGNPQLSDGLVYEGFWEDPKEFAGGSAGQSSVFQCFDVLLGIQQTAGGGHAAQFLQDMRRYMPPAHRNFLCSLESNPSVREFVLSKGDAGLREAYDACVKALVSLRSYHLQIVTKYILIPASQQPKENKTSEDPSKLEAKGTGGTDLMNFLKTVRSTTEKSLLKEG
IC50,relative activity of the separated isomers,Compound
≤ 5000 nM and 1000 to 5000 nM,,"N#Cc1csc(C2N(O)C(=O)CN2C(=O)c2c(F)cccc2Cl)c1 (stereo not shown) [Example 29, 5-[1-(2-Chloro-6-fluoro-benzoyl)-3-hydroxy-4-oxo-imidazolidin-2-yl]thiophene-3-carbonitrile]"
≤ 1000 nM,,"O=C1CN(C(=O)c2c(F)ccc(-c3ccc(F)cc3)c2F)C(c2cc(Br)cs2)N1O (stereo not shown) [Example 136, 2-(4-Bromo-2-thienyl)-1-[2,6-difluoro-3-(4-fluorophenyl)benzoyl]-3-hydroxy-imidazolidin-4-one]"
≤ 1000 nM,,"CS(=O)(=O)Nc1ccc(F)c(C(=O)N2CC(=O)N(O)C2c2cc(Br)cs2)c1F (stereo not shown) [Example 107, N-[3-[2-(4-bromo-2-thienyl)-3-hydroxy-4-oxo-imidazolidine-1-carbonyl]-2,4-difluoro-phenyl]methanesulfonamide]"
≤ 5000 nM and 1000 to 5000 nM,,"O=C1CN(C(=O)c2c(F)cccc2Cl)C(c2ccc(Br)s2)N1O (stereo not shown) [Example 3, 2-(5-Bromo-2-thienyl)-1-(2-chloro-6-fluoro-benzoyl)-3-hydroxy-imidazolidin-4-one]"
≤ 1000 nM,,"O=C1CN(C(=O)c2c(F)cc(-c3cccs3)cc2F)C(c2cc(Br)cs2)N1O (stereo not shown) [Example 87, 2-(4-Bromo-2-thienyl)-1-[2,6-difluoro-4-(2-thienyl)benzoyl]-3-hydroxy-imidazolidin-4-one]"
≤ 1000 nM,,"O=C1CN(C(=O)c2c(F)ccc(-c3ccccc3)c2F)C(c2cc(Br)cs2)N1O (stereo not shown) [Example 122, 2-(4-Bromo-2-thienyl)-1-(2,6-difluoro-3-phenyl-benzoyl)-3-hydroxy-imidazolidin-4-one]"
≤ 1000 nM,,"CS(=O)(=O)NCC#Cc1cc(F)c(C(=O)N2CC(=O)N(O)C2c2cc(Br)cs2)c(F)c1 (stereo not shown) [Example 40, N-[3-[4-[2-(4-bromo-2-thienyl)-3-hydroxy-4-oxo-imidazolidine-1-carbonyl]-3,5-difluoro-phenyl]-prop-2-ynyl]methanesulfonamide]"
≤ 5000 nM and 1000 to 5000 nM,,"NS(=O)(=O)N1CCC(C(=O)N2CC(=O)N(O)C2c2cc(Br)cs2)CC1 (stereo not shown) [Example 108, 4-[2-(4-Bromo-2-thienyl)-3-hydroxy-4-oxo-imidazolidine-1-carbonyl]piperidine-1-sulfonamide]"
≤ 1000 nM,less active isomer,"O=C1CN(C(=O)c2c(F)cc(C#CC3CC3)cc2F)C(c2cc(Br)cs2)N1O (single isomer, unassigned) [Example 47a, 2-(4-Bromo-2-thienyl)-1-[4-(2-cyclopropylethynyl)-2,6-difluoro-benzoyl]-3-hydroxy-imidazolidin-4-one]"
≤ 1000 nM,,"O=C1CN(C(=O)c2c(F)ccc(-c3cccs3)c2F)C(c2cc(Br)cs2)N1O (stereo not shown) [Example 131, 2-(4-Bromo-2-thienyl)-1-[2,6-difluoro-3-(2-thienyl)benzoyl]-3-hydroxy-imidazolidin-4-one]"
≤ 1000 nM,,"Cn1cc(-c2ccc(F)c(C(=O)N3CC(=O)N(O)C3c3cc(Br)cs3)c2F)cn1 (stereo not shown) [Example 125, 2-(4-Bromo-2-thienyl)-1-[2,6-difluoro-3-(1-methylpyrazol-4-yl)benzoyl]-3-hydroxy-imidazolidin-4-one]"
≤ 5000 nM and 1000 to 5000 nM,,"O=C1CN(C(=O)c2c(F)cccc2F)C(c2cc(C3CC3)cs2)N1O (stereo not shown) [Example 109, 2-(4-Cyclopropyl-2-thienyl)-1-(2,6-difluorobenzoyl)-3-hydroxy-imidazolidin-4-one]"
≤ 1000 nM,,"O=C1CN(Cc2ccccc2F)C(c2cc(Br)cs2)N1O (stereo not shown) [Example 43, 2-(4-Bromo-2-thienyl)-1-[(2-fluorophenyl)methyl]-3-hydroxy-imidazolidin-4-one]"
≤ 1000 nM,,"Cc1cc(F)c(C(=O)N2CC(=O)N(O)C2c2cc(Br)cs2)c(F)c1 (stereo not shown) [Example 84, 2-(4-Bromo-2-thienyl)-1-(2,6-difluoro-4-methyl-benzoyl)-3-hydroxy-imidazolidin-4-one]"
≤ 1000 nM,,"O=C1CN(C(=O)c2c(F)cc(C#CC3CC3)cc2F)C(c2cc(Br)cs2)N1O (stereo not shown) [Example 39, 2-(4-Bromo-2-thienyl)-1-[4-(2-cyclopropylethynyl)-2,6-difluoro-benzoyl]-3-hydroxy-imidazolidin-4-one]"
≤ 5000 nM and 1000 to 5000 nM,,"N#Cc1csc(C2N(O)C(=O)CN2C(=O)c2c(F)cccc2F)c1 (stereo not shown) [Example 30, 5-[1-(2,6-Difluorobenzoyl)-3-hydroxy-4-oxo-imidazolidin-2-yl]thiophene-3-carbonitrile]"
≤ 1000 nM,,"NS(=O)(=O)NC1(C#Cc2cc(F)c(C(=O)N3CC(=O)N(O)C3c3cc(Br)cs3)c(F)c2)CC1 (stereo not shown) [Example 90, 2-(4-Bromo-2-thienyl)-1-[2,6-difluoro-4-[2-[1-(sulfamoylamino)cyclopropyl]ethynyl]benzoyl]-3-hydroxy-4-oxo-imidazolidine]"
≤ 5000 nM and 1000 to 5000 nM,,"N#Cc1csc(C2N(O)C(=O)CN2C(=O)c2ccccc2F)c1 (stereo not shown) [Example 31, 5-[1-(2-Fluorobenzoyl)-3-hydroxy-4-oxo-imidazolidin-2-yl]thiophene-3-carbonitrile]"

IC50,relative activity of the separated isomers,Compound
≤ 5000 nM and 1000 to 5000 nM,,"O=C1CN(C(=O)c2c(F)cccc2F)C(c2nc(Br)cs2)N1O (stereo not shown) [Example 22, 2-(4-Bromothiazol-2-yl)-1-(2,6-difluorobenzoyl)-3-hydroxy-imidazolidin-4-one]"
≤ 1000 nM,,"O=C1CN(C(=O)c2c(F)ccc(Br)c2F)C(c2csc(Br)c2)N1O (stereo not shown) [Example 101, 1-(3-Bromo-2,6-difluoro-benzoyl)-2-(5-bromo-3-thienyl)-3-hydroxy-imidazolidin-4-one]"
≤ 1000 nM,,"O=C1CN(C(=O)c2c(F)cccc2F)C(c2cc(Cl)cs2)N1O (stereo not shown) [Example 33, 2-(4-Chloro-2-thienyl)-1-(2,6-difluorobenzoyl)-3-hydroxy-imidazolidin-4-one]"
≤ 1000 nM,,"O=C1CN(C(=O)c2c(F)cccc2F)C(c2cc(Br)c(F)s2)N1O (stereo not shown) [Example 37, 2-(4-Bromo-5-fluoro-2-thienyl)-1-(2,6-difluorobenzoyl)-3-hydroxy-imidazolidin-4-one]"
≤ 5000 nM and 1000 to 5000 nM,,"O=C1CN(C(=O)c2ccccc2C(F)(F)F)C(c2cc(Br)cs2)N1O (stereo not shown) [Example 56, 2-(4-Bromo-2-thienyl)-3-hydroxy-1-[2-(trifluoromethyl)benzoyl]imidazolidin-4-one]"
≤ 5000 nM and 1000 to 5000 nM,less active isomer,"O=C1CN(C(=O)c2c(F)cccc2F)C(c2csc(Br)c2)N1O (single isomer, unassigned) [Example 46a, 2-(5-Bromo-3-thienyl)-1-(2,6-difluorobenzoyl)-3-hydroxy-imidazolidin-4-one]"
≤ 1000 nM,less active isomer,"O=C1CN(C(=O)c2c(F)cccc2F)C(c2cc(Br)cs2)N1O (single isomer, unassigned) [Example 48a, 2-(4-Bromo-2-thienyl)-1-(2,6-difluorobenzoyl)-3-hydroxy-imidazolidin-4-one]"
≤ 5000 nM and 1000 to 5000 nM,less active isomer,"O=C1CN(Cc2c(F)cccc2F)C(c2cc(Br)cs2)N1O (single isomer, unassigned) [Example 45a, 2-(4-Bromo-2-thienyl)-1-[(2,6-difluorophenyl)methyl]-3-hydroxy-imidazolidin-4-one]"
≤ 1000 nM,most active isomer,"C[C@@H](c1ccccc1)N1CC(=O)N(O)C1c1ccc(Br)s1 (single isomer, unassigned) [Example 120b]"
≤ 1000 nM,,"O=C1CN(C(=O)c2c(F)ccc(C(F)(F)F)c2F)C(c2csc(Br)c2)N1O (stereo not shown) [Example 103, 2-(5-Bromo-3-thienyl)-1-[2,6-difluoro-3-(trifluoromethyl)benzoyl]-3-hydroxy-imidazolidin-4-one]"
≤ 5000 nM and 1000 to 5000 nM,,"O=C1CN(C(=O)c2ccc(Oc3ccccc3)cc2)C(c2cc(Br)cs2)N1O (stereo not shown) [Example 54, 2-(4-Bromo-2-thienyl)-3-hydroxy-1-(4-phenoxybenzoyl)imidazolidin-4-one]"
≤ 1000 nM,,"Cc1ccccc1-c1ccc(F)c(C(=O)N2CC(=O)N(O)C2c2cc(Br)cs2)c1F (stereo not shown) [Example 133, 2-(4-Bromo-2-thienyl)-1-[2,6-difluoro-3-(o-tolyl)benzoyl]-3-hydroxy-imidazolidin-4-one]"
≤ 1000 nM,,"O=C1CN(C(=O)c2c(F)c(F)c(F)c(F)c2F)C(c2cc(Br)cs2)N1O (stereo not shown) [Example 63, 2-(4-Bromo-2-thienyl)-3-hydroxy-1-(2,3,4,5,6-pentafluorobenzoyl)imidazolidin-4-one]"
≤ 1000 nM,,"C#Cc1csc(C2N(O)C(=O)CN2C(=O)c2c(F)cccc2F)c1 (stereo not shown) [Example 1, 1-(2,6-Difluorobenzoyl)-2-(4-ethynyl-2-thienyl)-3-hydroxy-imidazolidin-4-one]"
≤ 1000 nM,,"O=C1CN(C(=O)c2c(F)ccc(C(F)(F)F)c2F)C(c2cc(Br)cs2)N1O (stereo not shown) [Example 76, 2-(4-Bromo-2-thienyl)-1-[2,6-difluoro-3-(trifluoromethyl)benzoyl]-3-hydroxy-imidazolidin-4-one]"
≤ 1000 nM,,"O=C1CN(C(=O)c2ccccc2F)C(c2cc(Br)cs2)N1O (stereo not shown) [Example 9, 2-(4-Bromo-2-thienyl)-1-(2-fluorobenzoyl)-3-hydroxy-imidazolidin-4-one]"
≤ 1000 nM,,"O=C1CN(Cc2ccccc2F)C(c2ccc(Br)s2)N1O (stereo not shown) [Example 41, 2-(5-Bromo-2-thienyl)-1-[(2-fluorophenyl)methyl]-3-hydroxy-imidazolidin-4-one]"

# From patent US11053230B2, “3-hydroxy-imidazolidin-4-one compounds as inhibitors of indoleamine 2,3-dioxygenase” (Netherlands Translational Research Center B.V., priority 2017, dated 2021)
